# According to US8377944B2, “Thienopyrimidine derivatives” (ASKA Pharmaceutical Co., Ltd., priority 2005, dated 2013):
# Tests used:
# [1] = target: T1, human recombinant PDE9 protein (Homo sapiens, UniProt O76083); assay: Measurement of PDE9-inhibiting activity; format: biochemical; details: human recombinant PDE9, [3H]-cGMP substrate; read-out: Inhibitory Activity (IC50 value) PDE 9
# T1 construct: made in house; host or cells: COS-1 cells, transient transfection of pcDNA 3.1(+); supernatant of the cell homogenate
# T1 sequence (O76083 whole entry): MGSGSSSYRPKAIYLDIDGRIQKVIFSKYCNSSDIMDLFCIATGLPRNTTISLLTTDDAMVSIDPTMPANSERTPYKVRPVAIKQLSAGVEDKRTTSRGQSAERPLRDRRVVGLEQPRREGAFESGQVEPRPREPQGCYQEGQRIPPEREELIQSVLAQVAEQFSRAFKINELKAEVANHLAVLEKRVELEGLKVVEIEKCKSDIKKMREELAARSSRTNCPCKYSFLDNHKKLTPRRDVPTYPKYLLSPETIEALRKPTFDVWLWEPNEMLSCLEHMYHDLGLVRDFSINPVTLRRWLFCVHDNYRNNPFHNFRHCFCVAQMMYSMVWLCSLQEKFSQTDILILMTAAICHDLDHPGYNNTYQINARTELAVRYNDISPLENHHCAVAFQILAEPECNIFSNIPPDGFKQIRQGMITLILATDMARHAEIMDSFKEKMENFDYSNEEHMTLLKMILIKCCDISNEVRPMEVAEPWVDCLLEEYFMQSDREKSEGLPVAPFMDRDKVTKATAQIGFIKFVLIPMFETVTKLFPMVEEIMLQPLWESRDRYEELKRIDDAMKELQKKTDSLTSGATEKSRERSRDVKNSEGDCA
# Excerpt: (1) Measurement of PDE9-Inhibiting Activity:
# 1) Preparation of Human Recombinant PDE9 Protein
# Based on the base sequence of hsPDE9A1 registered with GenBank database (accession No.: AF048837), hsPDE9A1 fragment was amplified by polymerase chain reaction under the following conditions, using the following sequence (Amasham Pharmacia Biotech) as the primer and Human Prostate […] cDNA library (CLONTECH) as the template DNA, with Pfu Turbo DNA polymerase ([…]):
# hPDE9-5A primer: […] [SEQ ID NO: 1]
# hPDE9-3A primer: […] [SEQ ID NO: 2]
# PCR condition: [95° C., 5 min]×1 cycle, [(95° C., 1 min), (58° C., 2 min), (72° C., 3 min)]×25 cycle, [72° C., 10 min]×1 cycle
# Thus obtained hsPDE9A1 fragment was given a restricted enzymatic treatment with NheI and NotI, and thereafter inserted into pcDNA 3.1(+) expression vector (Invitrogen) to let it serve as a human PDE9 expression vector.
# Human PDE9 expression vector-transformed Escherichia coli was mass incubated to produce a large amount of PDE9 expression vector, which was transiently transfected into COS-1 cells, with LIPOFECTAMINE 2000 Reagent (GIBCO). […]
# To 150 μL of buffer B (70 mmol/L Tris-HCl, pH7.5; 16.7 mmol/L MgCl2, 33.3 nmol/L [^3H]-cGMP) solution containing [^3H]-cGMP (specific activity=244.2 GBq/mmol) at a concentration of 33.3 nmol/L, 50 μL of a solution of the compound to be evaluated (formed by dissolving the compound in DMSO and diluting it with distilled water to DMSO concentration of 5%) and 50 μL of the PDE9 protein solution as prepared in the above, as diluted with buffer C (40 mmol/L Tris-HCl, pH7.5, 15 mmol/L benzamidine, 15 mmol/L 2-mercaptoethanol, 1 μg/mL Pepstatin A, 1 μg/mL Leupeptin) by 1,500×, were added under cooling with ice. […] Thereafter [^3H]-guanosine was eluted with 3 mL of 3 mol/L aqueous ammonia and its radiation activity was measured with liquid scintillation counter.
# PDE9 inhibition of the tested compound can be calculated by the following formula: […]
# From the inhibition ratios at various concentration levels of each tested compound, its IC50 value against PDE9 was determined.
# [2] = target: T2, human recombinant PDE5 protein (Homo sapiens, UniProt O76074); assay: Measurement of PDE5-inhibiting activity; format: biochemical; details: human recombinant PDE5, [3H]-cGMP substrate; read-out: Inhibitory Activity (IC50 value) PDE 5
# T2 construct: made in house; host or cells: COS-1 cells, transient transfection of pcDNA 3.1(+); supernatant of the cell homogenate
# Excerpt: (2) Measurement of PDE5-Inhibiting Activity:
# 1) Preparation of Human Recombinant PDE5 Protein
# Based on the base sequence of hsPDE5A1 registered with GenBank database (accession No.: NM_001083), hsPDE5A1 fragment was amplified by polymerase chain reaction under the following conditions, using the following sequence (SIGMA GENOSYS) as the primer and Human Prostate […] cDNA library (CLONTECH) as the template DNA, with KDD plus DNA polymerase (TOYOBO): […]
# hPDE5-5′E primer: […] [SEQ ID NO: 3] […]
# hPDE5-3′ primer: […] [SEQ ID NO: 4]
# PCR condition: [94° C., 2 min]×1 cycle, [(94° C., 30 sec), (65° C., 30 sec), (68° C., 3 min)]×25 cycle, [68° C., 6 min]×1 cycle Thus obtained hsPDE5A1 fragment was given a restricted enzymatic treatment with XBaI and EcoRI, and thereafter inserted into pcDNA 3.1(+) expression vector (Invitrogen) to let it serve as a human PDE5 expression vector.
# Human PDE5 expression vector-transformed Escherichia coli was mass incubated to produce a large amount of PDE5 expression vector, which was transiently transfected into COS-1 cells, with LIPOFECTAMINE 2000 Reagent (GIBCO). The cells were homogenized in ice-cooled buffer A and centrifuged at 4° C., 14,000×g for 10 minutes. The supernatant was isolated to provide human recombinant PDE5 protein solution.
# 2) Measurement of PDE5-Inhibiting Activity
# By a method similar to the measurement of PDE9-inhibiting activity, PDE5-inhibiting activity of the test compounds was measured, their inhibition was calculated and IC50 value to PDE5 of each of the compounds was determined. The results are shown in the following Table A, concurrently with the compounds' IC50 values against PDE9.
IC50 [1],IC50 [2],Molecule
24 nM,843 nM,"2-(Cyclopent-1-enylmethyl)-5-methyl-4-thioxo-3,4-dihydrothieno[2,3-d]pyrimidine-6-carboxylic acid and 2-cyclopentylidenemethyl-5-methyl-4-thioxo-3,4-dihydrothieno-[2,3-d]pyrimidine-6-carboxylic acid [Example 117]"
34 nM,6900 nM,"Cc1c(C(=O)O)sc2nc(Cc3ccc(Cl)s3)[nH]c(=O)c12 [Example 3, 2-(5-Chlorothiophen-2-ylmethyl)-5-methyl-4-oxo-3,4-dihydrothieno[2,3-d]pyrimidine-6-carboxylic acid]"
38 nM,3420 nM,"Cc1c(C(=O)O)sc2nc(Cc3ccc(F)c(Cl)c3)[nH]c(=O)c12 [Example 52, 2-(3-Chloro-4-fluorobenzyl)-5-methyl-4-oxo-3,4-dihydrothieno[2,3-d]pyrimidine-6-carboxylic acid]"
